Molecular target: T1, PIK3C2A (PI3K-C2 alpha) (Homo sapiens, UniProt O00443)
T1 construct: purchased Thermo Fisher Scientific (Life Technologies) SelectScreen
Assay: SelectScreen Adapta
Type: biochemical
Protocol: The in vitro kinase selectivity of NU5455 was determined using the SelectScreen Broad Assay Panel (Thermo Fisher Scientific) involving activity and binding assays (Supplemental Table 1). […] Class IA PI3Ks were measured using the p85α subunit.
Kinase [ATP] % Assay Kinase [ATP] % Assay Kinase [ATP] % Assay Kinase [ATP] % Assay
DNA-PK Km app 98.3 Z LATS2 n/a 4.7 L KIT D820E n/a 1.3 L GSK3B (GSK3 beta) Km app -2.5 Z
PIK3C3 (hVPS34) Km app 85.9 A PRKCZ (PKC zeta) Km app 4.7 Z GRK1 n/a 1.3 L BMPR2 n/a -2.5 L
PIK3C2B (PI3K-C2 beta) 10 28.9 A FGFR1 Km app 4.7 Z BRSK2 n/a 1.2 L CDC42 BPB (MRCKB) Km app -2.5 Z
SNF1LK2 Km app 26.6 Z MINK1 Km app 4.6 Z NUAK1 (ARK5) Km app 1.2 A AMPK (A2/B2/G2) n/a -2.6 L
HCK Km app 18.0 Z CSF1R (FMS) Km app 4.3 Z CDK9/cyclin K n/a 1.0 L PRKG1 Km app -2.7 Z
NEK2 Km app 17.8 Z CSNK1G3 (CK1 gamma 3) Km app 4.2 Z NUAK2 n/a 1.0 L KIT T670E n/a -2.8 L
ALK Km app 17.3 Z STK32C (YANK3) n/a 4.2 L CDK2/cyclin O n/a 0.9 L ERBB4 (HER4) Km app -2.8 Z
FGFR3 K650M n/a 16.5 L STK22D (TSSK1) Km app 4.2 Z CAMKK2 (CaMKK beta) n/a 0.9 L PLK4 n/a -2.8 L
SIK3 n/a 16.1 L TAOK3 (JIK) n/a 4.2 L FGFR3 Km app 0.9 Z GRK7 Km app -3.0 Z
LYN A Km app 15.2 Z RPS6KA4 (MSK2) Km app 4.2 Z ULK2 n/a 0.9 L MAPKAPK2 Km app -3.1 Z
BMPR1B (ALK6) n/a 14.5 L PTK2B (FAK2) Km app 4.2 Z KIT D816V n/a 0.9 L FGFR4 Km app -3.1 Z
INSRR (IRR) Km app 14.1 Z CLK2 Km app 4.1 Z CAMK1 (CaMK1) 10 0.8 A CASK n/a -3.1 L
PLK2 Km app 14.1 Z STK24 (MST3) Km app 4.1 Z PTK6 (Brk) Km app 0.7 Z GRK5 Km app -3.2 Z
PRKACA (PKA) Km app 14.0 Z CAMK1D (CaMKI delta) Km app 4.1 Z CAMK2B (CaMKII beta) Km app 0.7 Z EGFR (ErbB1) T790M Km app -3.3 Z
EIF2AK2 (PKR) n/a 13.3 L INSR Km app 4.1 Z ACVR1 (ALK2) n/a 0.7 L PAK4 Km app -3.3 Z
PRKX Km app 12.5 Z IRAK1 Km app 4.0 A ABL1 H396P n/a 0.6 L DAPK3 (ZIPK) Km app -3.4 Z
FGR Km app 12.1 Z SRC N1 Km app 3.9 Z MERTK (cMER) A708S n/a 0.6 L RET M918T n/a -3.5 L
CLK1 Km app 11.7 Z SRPK2 Km app 3.9 Z MAPKAPK5 (PRAK) Km app 0.6 Z PRKCQ (PKC theta) Km app -3.7 Z
MARK3 Km app 11.4 Z RPS6KA6 (RSK4) Km app 3.8 Z AKT1 (PKB alpha) Km app 0.5 Z CAMKK1 (CAMKKA) n/a -3.8 L
PDGFRB (PDGFR beta) Km app 11.0 Z GRK6 Km app 3.7 Z NTRK3 (TRKC) Km app 0.4 Z FLT3 D835Y Km app -3.9 Z
PRKCN (PKD3) Km app 10.7 Z PKN1 (PRK1) Km app 3.6 Z ZAP70 Km app 0.3 Z ROCK2 Km app -4.1 Z
STK16 (PKL12) n/a 10.5 L MAP3K8 (COT) 100 3.5 Z CSNK1A1 (CK1 alpha 1) Km app 0.3 Z CHUK (IKK alpha) Km app -4.2 A
FES (FPS) Km app 10.4 Z FLT4 (VEGFR3) Km app 3.5 Z MYLK (MLCK) n/a 0.2 L AXL Km app -4.2 Z
ABL1 Km app 10.4 Z GRK4 Km app 3.5 Z MKNK2 (MNK2) n/a 0.2 L PIM2 Km app -4.3 Z
MUSK Km app 10.3 Z FRK (PTK5) Km app 3.4 Z AMPK (A1/B1/G3) n/a 0.2 L PAK1 Km app -4.4 Z
MAPK1 (ERK2) Km app 10.1 Z FYN A n/a 3.3 L MAP3K2 (MEKK2) n/a 0.1 L BMPR1A (ALK3) n/a -4.4 L
BRAF 100 9.9 Z CDK1/cyclin A2 n/a 3.3 L CDK8/cyclin C n/a 0.1 L STK4 (MST1) Km app -4.4 Z
IGF1R Km app 9.7 Z KIT V559D T670I n/a 3.1 L MARK2 Km app 0.1 Z PRKCH (PKC eta) Km app -4.6 Z
MAPK14 (p38 alpha) Km app 9.7 Z SPHK2 10 3.1 A ICK n/a 0.0 L SGKL (SGK3) Km app -4.6 Z
LCK Km app 9.6 Z FGFR3 G697C n/a 3.1 L FGFR2 Km app 0.0 Z PI4KB (PI4K beta) Km app -4.7 A
MAPK11 (p38 beta) Km app 9.5 Z RIPK2 n/a 3.1 L AKT2 (PKB beta) Km app 0.0 Z PRKCE (PKC epsilon) Km app -4.9 Z
SRC Km app 9.5 Z PAK6 Km app 3.0 Z EPHB2 Km app -0.1 Z PHKG1 Km app -5.0 Z
CHEK1 (CHK1) Km app 9.3 Z LYN B Km app 3.0 Z TGFBR2 n/a -0.1 L PDGFRA D842V Km app -5.0 Z
CAMK2D (CaMKII delta) Km app 9.3 Z DAPK2 n/a 2.9 L TEK (Tie2) Km app -0.1 Z PRKG2 (PKG2) Km app -5.1 Z
PLK1 Km app 9.2 Z EPHA4 Km app 2.9 Z AURKA (Aurora A) Km app -0.1 Z TYRO3 (RSE) Km app -5.1 Z
RET Y791F Km app 9.2 Z PIK3CG (p110 gamma) Km app 2.9 A KIT D816H n/a -0.2 L TAOK2 (TAO1) Km app -5.1 Z
FLT3 Km app 9.1 Z HIPK1 (Myak) Km app 2.8 Z KIT N822K n/a -0.2 L EPHB4 Km app -5.3 Z
MAPK10 (JNK3) 100 9.0 Z ADRBK2 (GRK3) Km app 2.8 Z PRKACG (PRKAC gamma) n/a -0.2 L AURKC (Aurora C) Km app -5.4 Z
CSNK2A2 (CK2 alpha 2) Km app 8.7 Z STK17B (DRAK2) n/a 2.7 L TEK (TIE2) Y1108F n/a -0.3 L JAK1 Km app -5.7 Z […]

T1 sequence (O00443 whole entry): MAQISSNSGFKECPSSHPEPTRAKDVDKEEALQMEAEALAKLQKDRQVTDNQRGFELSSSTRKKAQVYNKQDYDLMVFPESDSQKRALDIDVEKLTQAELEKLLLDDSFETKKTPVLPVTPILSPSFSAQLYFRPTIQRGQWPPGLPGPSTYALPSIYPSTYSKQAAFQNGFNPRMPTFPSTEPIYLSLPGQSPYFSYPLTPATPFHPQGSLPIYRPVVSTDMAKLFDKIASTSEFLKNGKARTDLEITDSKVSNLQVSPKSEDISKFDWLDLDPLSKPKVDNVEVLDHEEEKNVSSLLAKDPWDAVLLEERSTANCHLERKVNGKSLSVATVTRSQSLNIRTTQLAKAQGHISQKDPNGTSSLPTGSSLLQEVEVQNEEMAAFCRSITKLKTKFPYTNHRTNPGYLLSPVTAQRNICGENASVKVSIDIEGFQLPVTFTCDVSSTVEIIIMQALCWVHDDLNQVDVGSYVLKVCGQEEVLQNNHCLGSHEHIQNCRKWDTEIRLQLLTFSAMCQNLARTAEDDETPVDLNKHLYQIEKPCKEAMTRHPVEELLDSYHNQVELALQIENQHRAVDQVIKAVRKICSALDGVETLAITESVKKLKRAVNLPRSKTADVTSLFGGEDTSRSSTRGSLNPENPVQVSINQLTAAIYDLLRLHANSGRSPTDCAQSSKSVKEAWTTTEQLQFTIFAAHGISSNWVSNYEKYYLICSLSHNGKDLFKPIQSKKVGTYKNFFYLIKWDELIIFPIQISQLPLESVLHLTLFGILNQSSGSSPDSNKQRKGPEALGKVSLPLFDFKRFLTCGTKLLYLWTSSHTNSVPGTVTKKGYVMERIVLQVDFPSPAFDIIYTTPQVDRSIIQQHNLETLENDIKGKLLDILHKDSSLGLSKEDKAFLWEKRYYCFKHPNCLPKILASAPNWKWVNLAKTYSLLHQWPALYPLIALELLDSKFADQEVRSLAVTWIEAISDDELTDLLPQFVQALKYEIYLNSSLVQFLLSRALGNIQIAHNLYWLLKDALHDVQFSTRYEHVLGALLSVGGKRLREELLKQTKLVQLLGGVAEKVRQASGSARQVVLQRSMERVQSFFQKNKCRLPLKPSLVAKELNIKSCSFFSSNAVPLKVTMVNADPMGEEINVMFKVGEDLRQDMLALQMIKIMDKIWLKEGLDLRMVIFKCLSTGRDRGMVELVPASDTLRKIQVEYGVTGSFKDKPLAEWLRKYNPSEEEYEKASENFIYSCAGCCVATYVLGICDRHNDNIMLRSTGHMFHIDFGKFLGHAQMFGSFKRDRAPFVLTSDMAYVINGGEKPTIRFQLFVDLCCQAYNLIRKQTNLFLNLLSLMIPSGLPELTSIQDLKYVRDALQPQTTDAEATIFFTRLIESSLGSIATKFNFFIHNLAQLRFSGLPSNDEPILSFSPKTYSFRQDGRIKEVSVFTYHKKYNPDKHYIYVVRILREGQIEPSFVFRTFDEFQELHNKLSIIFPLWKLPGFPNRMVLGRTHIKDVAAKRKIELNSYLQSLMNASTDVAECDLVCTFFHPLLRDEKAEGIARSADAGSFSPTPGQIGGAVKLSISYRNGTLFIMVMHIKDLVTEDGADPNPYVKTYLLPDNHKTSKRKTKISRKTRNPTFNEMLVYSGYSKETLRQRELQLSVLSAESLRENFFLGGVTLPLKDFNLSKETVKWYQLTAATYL

Compound: CN(C(=O)CN1CCOCC1)c1ccc2sc3c(-c4cccc5c(=O)cc(N6CC7CCC(C6)O7)oc45)cccc3c2c1 [NU5455]
- inhibition at 1 µM: 1.3%

— PMC6934184, “Selective DNA-PKcs inhibition extends the therapeutic index of localized radiotherapy and chemotherapy” (The Journal of Clinical Investigation, 2019)
